Legend:
MDA-MB-436 cells = assay: Resazurin viability assay, MDA-MB-436 cells (monotherapy and combination); assay type: cell-based, human; conditions: for IC50: MDA-MB-436, 72 h treatment, n = 3
Text: The MDA-MB-436 cell line was from ATCC. The MDA-MB-436 cell line was established from a pleural effusion of a patient with metastatic breast adenocarcinoma. The cell line is of triple negative breast cancer, however the MDA-MB-436 cell line is classified as mesenchymal stem-like with high enrichment of genes for biological processes such as cell motility (Rho pathway), cellular differentiation and growth pathways (ALK pathway, TGF-β signalling and Wnt/β-catenin pathway). MDA-MB-436 cells were maintained in RPMI-1640 culturing media supplemented with 10% FBS, 0.3 mg/mL L-glutamine and 0.1 mg/mL gentamicin, 10 mcg/mL insulin and incubated in 37° C. humidified atmosphere. Sub-culture using trypsin-EDTA 0.5% every 3-4 days with cell density of 2-3 million cells in a T75 cm2 culturing flask to ensure actively proliferating cells. The MDA-MB-436 cells was seeded in 1×10^4 cells/well. After 24 h of cultivation, when the cells were ˜30-50% confluent, the medium was replaced with serum free growth medium without gentamycin to ensure synchronization of the cells and to increase cell sensitivity to treatment. The MDA-MB-436 cells were starved in starvation media with insulin. The medium was replaced with fresh serum free medium with or without compound 2, NVP-BKM120 (Cayman Chemicals, US). The cells were observed under the microscope to evaluate possible morphology changes and signs of stress before the addition of resazurin according to the manufacturer's instructions (RnD Systems, UK). MDA-MB-436 cells were incubated for 72 h. Resazurin was metabolized for 1-2 h (37° C., 5% CO2) before fluorescence was read at 544 nm excitation and 590 nm emission wavelength (BioTek Synergy HT). The experiments were performed in series of eight wells per treatment and repeated 2-3 times. […] Statistical significance between treatments were determined using Welch's ANOVA with Tamhane's T2 correction for multiple comparisons, p<0.05 was considered statistically significant.

CCRF-CEM cells = assay: Resazurin viability assay, CCRF-CEM cells (combination, Bliss Independence CI); assay type: cell-based, human; conditions: 0.5 μm of BKM120 as used in combination, FIG. 1, CCRF-CEM
Procedure: The CCRF-CEM (ATCC CCL-119) cell line is derived from T lymphoblasts from peripheral blood of a child with acute leukaemia. The cells were grown according to the recommendations of the supplier. The culture medium, RPMI-1640, was supplemented with 10 μL/mL glutamine, 2 μL/mL gentamicin and 10% foetal bovine serum (FBS) to make complete growth medium (CGM). The cells were incubated at 37 °C in a humidified atmosphere with 5% CO2. Passaging was conducted every 2 - 4 days to maintain a cell density below 2.5×10^6 cells/mL, and thus ensure a continuous proliferation. Cells were allowed to acclimatise for two weeks after establishment before they were utilised for experimental purposes and discarded after three months. […] Resazurin was metabolized for 1-2 h (37° C., 5% CO2) before fluorescence was read at 544 nm excitation and 590 nm emission wavelength (BioTek Synergy HT). […] Statistical significance between treatments were determined using Welch's ANOVA with Tamhane's T2 correction for multiple comparisons, p<0.05 was considered statistically significant. […] The combination index was calculated using: [formula] • where CI is the combination index, EA represent the effect of drug A given as a monotherapy, EB represent the effect of drug B given as a monotherapy and EAB represent drugs A and B given in combination at the same concentrations as the monotherapies. […]

Row | Structure (SMILES) | viability at 5 µM (MDA-MB-436 cells; Homo sapiens, 72 h, Cmpd 2 5 μM alone, MDA-MB-436, relative to untreated control set to 100%) [%] | viability at 6.5 µM (MDA-MB-436 cells; Homo sapiens, 72 h, Cmpd 2 6.5 μM alone, MDA-MB-436, relative to untreated control set to 100%) [%] | viability at 7.5 µM (MDA-MB-436 cells; Homo sapiens, 72 h, Cmpd 2 7.5 μM alone, MDA-MB-436, relative to untreated control set to 100%) [%] | viability at 10 µM (MDA-MB-436 cells; Homo sapiens, 72 h, Cmpd 2 10 μM alone, MDA-MB-436, relative to untreated control set to 100%) [%] | IC50 (MDA-MB-436 cells; Homo sapiens) [µM] | concentration at which viability was reduced significantly compared to the untreated control (MDA-MB-436 cells; MDA-MB-436, 72 h, control set to 100% viability) [µM] | viability at 0.4 µM (MDA-MB-436 cells; Homo sapiens, 72 h, BKM120 0.4 μM alone, MDA-MB-436, relative to untreated control set to 100%) [%] | viability at 1.1 µM (MDA-MB-436 cells; Homo sapiens, 72 h, BKM120 1.1 μM alone, MDA-MB-436, relative to untreated control set to 100%) [%] | expected inhibition (CCRF-CEM cells) [%]
1 | CCCCCCCOc1ccc(OCC(=O)c2nc(C(=O)OC)cs2)cc1 [Compound 2] | 92 ± 3 | 82 ± 6 | 76 ± 4 | 60 ± 10 | 10.4 | ≥ 9 | – | – | –
2 | Nc1cc(C(F)(F)F)c(-c2cc(N3CCOCC3)nc(N3CCOCC3)n2)cn1 [BKM120, buparlisib, reference compound] | – | – | – | – | 1.2 | – | 84 ± 7 | 45 ± 10 | 10

From patent publication US20220304985A1, “COMBINATION THERAPY FOR PROLIFERATIVE CONDITIONS” (Avexxin AS, priority 2019, published 2022)
